Among the data in patent US8754073B2, “Substituted piperazino-dihydrothienopyrimidines” (Boehringer Ingelheim International GmbH, priority 2007, dated 2014) are inhibition values, retold here.

Chain of PDE4B (Q07343 whole entry, species assumed): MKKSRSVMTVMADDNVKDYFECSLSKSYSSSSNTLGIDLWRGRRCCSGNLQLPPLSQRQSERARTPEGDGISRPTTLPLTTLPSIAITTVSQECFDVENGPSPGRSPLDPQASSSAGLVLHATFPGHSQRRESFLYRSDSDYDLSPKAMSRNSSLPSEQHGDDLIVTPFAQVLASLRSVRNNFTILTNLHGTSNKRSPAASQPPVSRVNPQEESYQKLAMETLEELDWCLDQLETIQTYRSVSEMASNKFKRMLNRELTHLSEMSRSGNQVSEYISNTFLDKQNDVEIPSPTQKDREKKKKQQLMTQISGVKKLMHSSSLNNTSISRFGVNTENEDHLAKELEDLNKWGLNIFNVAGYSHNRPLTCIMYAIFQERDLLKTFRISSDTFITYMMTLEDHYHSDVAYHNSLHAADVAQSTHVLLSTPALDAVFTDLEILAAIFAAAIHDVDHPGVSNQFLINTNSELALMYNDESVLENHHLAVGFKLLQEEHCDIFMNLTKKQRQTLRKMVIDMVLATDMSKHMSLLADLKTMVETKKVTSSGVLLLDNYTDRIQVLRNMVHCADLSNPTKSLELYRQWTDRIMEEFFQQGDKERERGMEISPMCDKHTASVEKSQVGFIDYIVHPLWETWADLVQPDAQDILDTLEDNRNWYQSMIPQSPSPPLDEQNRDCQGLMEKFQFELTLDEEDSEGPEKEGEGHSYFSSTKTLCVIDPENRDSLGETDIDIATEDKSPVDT

The first assay addresses PDE4B (Homo sapiens, UniProt Q07343). Nature of the assay: Scintillation Proximity Assay (SPA) of PDE4B enzyme activity ([H3]-cAMP cleavage). The following applies: test substance 1 μM; one-hour incubation of [H3]-cAMP with PDE4B enzyme at 30° C. In kind it is biochemical. The procedure, abridged:
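SPA read-out: [H3]-cAMP incubated with PDE4B in assay buffer for 1 h at 30 °C, with and without test compound at 1 μM. Reaction stopped by adding yttrium silicate beads that bind the [H3]-AMP product; after 45 min settling, scintillation counted. Value is % inhibition at 1 μM.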
The compound `CS(=O)(=O)N1CC2(CCN(c3nc4c(c(NC5CCOCC5)n3)[S+]([O-])CC4)CC2)c2ccccc21` (stereo not drawn) [Example 59] registered an inhibition at 1 µM of 90%.
In turn, `CCc1[nH]c2ccc(F)cc2c1C1CCN(c2nc3c(c(NC4CCOCC4)n2)[S+]([O-])CC3)CC1` (stereo not drawn) [Example 67] gave an inhibition at 1 µM of 93%.
Same read-out and setting: the result for `[O-][S+]1CCc2nc(N3CCC(O)(c4cc(F)cc(F)c4)CC3)nc(NC3(CO)CC3)c21` (stereo not drawn) [Example 33] reads 95%.
Regarding `CC(C)[C@H](CO)Nc1nc(N2CCC(c3nc(-c4cccnc4)no3)CC2)nc2c1[S+]([O-])CC2` (stereo partly drawn) [Example 162], the inhibition at 1 µM worked out at 92%.
The same measure, in the same setting: the same measure for `CC(C)[C@H](CO)Nc1nc(N2CCC(c3ccc(Cl)cc3)CC2)nc2c1[S+]([O-])CC2` (stereo partly drawn) [Example 1, (R)-2-{2-[4-(4-chlorophenyl)-piperidin-1-yl]-5-oxo-6,7-dihydro-5H-5λ^4-thieno[3,2-d]pyrimidin-4-ylamino}-3-methylbutan-1-ol]: 93%; for `CC(C)[C@H](CO)Nc1nc(N2CCC(c3noc4cc(F)ccc34)CC2)nc2c1[S+]([O-])CC2` (stereo partly drawn) [Example 152]: 95%.
On the same count and under the same terms, the same measure for `Cc1noc(C2CCN(c3nc4c(c(NC5(CO)CC5)n3)[S+]([O-])CC4)CC2)n1` (stereo not drawn) [Example 38]: 92%; for `[O-][S+]1CCc2nc(N3CCC(c4cccc(Br)c4)CC3)nc(NC3(CO)CC3)c21` (stereo not drawn) [Example 94]: 94%; for `CN1C[C@@H](Nc2nc(N3CCC(c4ccc(Cl)cc4)CC3)nc3c2S(=O)(=O)CC3)CCC1=O` [Example 335, 5-{2-[4-(4-chlorophenyl)-piperidin-1-yl]-5.5-dioxo-6,7-dihydro-5H-5λ^6-thieno[3,2-d]pyrimidin-4-ylamino}-1-methylpiperidin-2-one]: 85%.
Still for that read-out and setting: the result for `[O-][S+]1CCc2nc(N3CCC(c4noc5cc(F)ccc45)CC3)nc(NC3CCOCC3)c21` (stereo not drawn) [Example 121] reads 96%.
On to `CC(C)[C@H](CO)Nc1nc(N2CCC3(CC2)OCc2ccccc23)nc2c1[S+]([O-])CC2` (stereo partly drawn) [Example 156], for which the inhibition at 1 µM is 64%.
The same measure, in the same setting: the same measure for `COc1ccc(C2CCN(c3nc4c(c(NC5(CO)CC5)n3)[S+]([O-])CC4)CC2)cc1` (stereo not drawn) [Example 101]: 94%; for `[O-][S+]1CCc2nc(N3CCC(c4nc5cc(Cl)ccc5s4)CC3)nc(Nc3cccc(F)c3)c21` (stereo not drawn) [Example 134]: 95%.
Still for that read-out and setting: the result for `COC(=O)c1cccc(C2CCN(c3nc4c(c(Nc5cccc(F)c5)n3)[S+]([O-])CC4)CC2)c1` (stereo not drawn) [Example 135] reads 96%.
On the same count and under the same terms, the result for `CN1C[C@@H](Nc2nc(N3CCC(c4cccc(O)c4)CC3)nc3c2[S+]([O-])CC3)CCC1=O` (stereo partly drawn) [Example 46] reads 97%; that for `[O-][S+]1CCc2nc(N3CCC(c4ccc(F)cc4)CC3)nc(NC3(CO)CC3)c21` (stereo not drawn) [Example 11], 94%; that for `CN1C[C@@H](Nc2nc(N3CCC(c4ccc(Cl)cc4)CC3)nc3c2[S+]([O-])CC3)CCC1=O` (stereo partly drawn) [Example 5, (S)-5-{2-[4-(4-chlorophenyl)-piperidin-1-yl]-5-oxo-6,7-dihydro-5H-5λ^4-thieno[3,2-d]pyrimidin-4-ylamino}-1-methylpiperidin-2-one], 94%.
`CN1C[C@@H](Nc2nc(N3CCC4(CC3)c3ccccc3NC(=O)N4C)nc3c2[S+]([O-])CC3)CCC1=O` (stereo partly drawn) [Example 43, (S)-3′-Methyl-1-(4-(1-Methyl-6-Oxopiperidin-3-Ylamino)-5-Oxo-6,7-Dihydro-5H-5λ^4-Thieno[3,2-d]Pyrimidin-2-YL)-3′-Methyl-1′H-Spiro[Piperidin-4,4′-Quinazolin]-2′(3′H)-One] gave an inhibition at 1 µM of 95%.
The same measure, in the same setting: the result for `N#CC1(c2ccccc2)CCN(c2nc3c(c(NC4CCOCC4)n2)[S+]([O-])CC3)CC1` (stereo not drawn) [Example 70] reads 95%; that for `O=C1Nc2ccccc2C2(CCN(c3nc4c(c(Nc5cccc(F)c5)n3)[S+]([O-])CC4)CC2)O1` (stereo not drawn) [Example 80], 94%; that for `[O-][S+]1CCc2nc(N3CCC(c4c[nH]cn4)CC3)nc(Nc3cccc(F)c3)c21` (stereo not drawn) [Example 72], 95%.
Same read-out and setting: the result for `[O-][S+]1CCc2nc(N3CCC(c4nc5ccccc5o4)CC3)nc(NC3CCOCC3)c21` (stereo not drawn) [Example 99, [2-(4-Benzoxazol-2-Yl-Piperidin-1-Yl)-5-Oxo-6,7-Dihydro-5H-5λ^4-Thieno[3,2-d]Pyrimidin-4-Yl]-(Tetrahydropyran-4-Yl)-Amine] reads 97%.

The same assay, now with this note: test substance 1 μM; one-hour incubation with [H3]-cAMP at 30° C.
On to `CC(=O)N(C)CC1(c2ccccc2)CCN(c2nc3c(c(N[C@H]4CCC(=O)N(C)C4)n2)[S+]([O-])CC3)CC1` (stereo partly drawn) [Example 274, N-methyl-N-{1-[4-(1-methyl-6-oxo-piperidin-3-ylamino)-5-oxo-6,7-dihydro-5H-5λ^4-thieno[3,2-d]pyrimidin-2-yl]-4-phenylpiperidin-4-ylmethyl}-acetamide], for which testing at 1 µM gave an inhibition of 94%.
Compound `COC(=O)c1ccc(OC2CCN(c3nc4c(c(NC5CCOCC5)n3)[S+]([O-])CC4)CC2)cc1` (stereo not drawn) [Example 176] returned an inhibition at 1 µM of 93%.
`[O-][S+]1CCc2nc(N3CCC(COCc4ccccc4)(c4ccc(Cl)cc4)CC3)nc(NC3(CO)CC3)c21` (stereo not drawn) [Example 309] yielded an inhibition at 1 µM of 92%.
The compound `[O-][S+]1CCc2nc(N3CCC(c4n[nH]c5ccccc45)CC3)nc(NC3(CO)CC3)c21` (stereo not drawn) [Example 220] gave an inhibition at 1 µM of 93%.
Same read-out and setting: the result for `[O-][S+]1CCc2nc(N3CCC(Oc4ccc(C5=NCCO5)cc4)CC3)nc(NC3CCOCC3)c21` (stereo not drawn) [Example 180, (2-{4-[4-(4,5-dihydroxazol-2-yl)-phenoxy]-piperidin-1-yl}-5-oxo-6,7-dihydro-5H-5λ^4-thieno[3,2-d]pyrimidin-4-yl)-(tetrahydropyran-4-yl)-amine] reads 93%; that for `N[C@@H]1CC1Nc1nc(N2CCC(c3ccc(Cl)cc3)CC2)nc2c1[S+]([O-])CC2` (stereo partly drawn) [Example 245, N-{2-[4-(4-Chlorophenyl)-Piperidin-1-Yl]-5-Oxo-6,7-Dihydro-5H-5λ^4-Thieno[3,2-d]Pyrimidin-4-Yl}-Cyclopropan-1,2-Diamine], 68%; that for `CN(C(=O)c1ccc(C2CCN(c3nc4c(c(NC5CCOCC5)n3)[S+]([O-])CC4)CC2)cc1)C1CCOCC1` (stereo not drawn) [Example 224], 93%.
The same measure, in the same setting: the result for `COCC1(c2ccc(Cl)cc2)CCN(c2nc3c(c(N[C@H]4CCC(=O)N(C)C4)n2)[S+]([O-])CC3)CC1` (stereo partly drawn) [Example 260, 5-{2-[4-(4-chlorophenyl)-4-methoxymethylpiperidin-1-yl]-5-oxo-6,7-dihydro-5H-5μ^4-thieno[3,2-d]pyrimidin-4-ylamino}-1-methylpiperidin-2-one] reads 96%; that for `CS(=O)(=O)NCC1(c2ccccc2)CCN(c2nc3c(c(NC4CCOCC4)n2)[S+]([O-])CC3)CC1` (stereo not drawn) [Example 325], 87%.
Same read-out and setting: the same measure for `O=C(c1ccc(C2CCN(c3nc4c(c(NC5CCOCC5)n3)[S+]([O-])CC4)CC2)cc1)N(C1CCOCC1)C1CC1` (stereo not drawn) [Example 225]: 89%.
Regarding `O=C(c1ccc(F)cc1)C1(c2ccc(F)cc2)CCN(c2nc3c(c(NC4(CO)CC4)n2)[S+]([O-])CC3)CC1` (stereo not drawn) [Example 308], at 1 µM the inhibition was 89%.
Same read-out and setting: the same measure for `[O-][S+]1CCc2nc(N3CCC(c4nnc(-c5ccccc5)o4)CC3)nc(NC3(CO)CC3)c21` (stereo not drawn) [Example 318]: 91%.
Same read-out and setting: the same measure for `CN(CC1(c2ccccc2)CCN(c2nc3c(c(Nc4cccc(F)c4)n2)[S+]([O-])CC3)CC1)S(C)(=O)=O` (stereo not drawn) [Example 332]: 93%.
For `O=C(c1ccc(F)cc1)C1(c2ccc(F)cc2)CCN(c2nc3c(c(Nc4cccc(F)c4)n2)[S+]([O-])CC3)CC1` (stereo not drawn) [Example 299], the inhibition at 1 µM stood at 90%.
The same measure, in the same setting: the same measure for `[O-][S+]1CCc2nc(N3CCC(O)(c4ccc(Cl)cc4)CC3)nc(Nc3cccc(F)c3)c21` (stereo not drawn) [Example 290]: 86%.
Regarding `CN1C[C@@H](Nc2nc(N3CCC(c4nc5cc(F)ccc5o4)CC3)nc3c2[S+]([O-])CC3)CCC1=O` (stereo partly drawn) [Example 195, 5-{2-[4-(5-fluorobenzoxazol-2-yl)-piperidin-1-yl]-5-oxo-6,7-dihydro-5H-5λ^4-thieno[3,2-d]pyrimidin-4-ylamino}-1-methylpiperidin-2-one], at 1 µM the inhibition was 96%.
The same measure, in the same setting: the same measure for `[O-][S+]1CCc2nc(N3CCC(c4n[nH]c5ccccc45)CC3)nc(NC3CCOCC3)c21` (stereo not drawn) [Example 221]: 94%.
Still for that read-out and setting: the same measure for `COCC(=O)NCC1(c2ccccc2)CCN(c2nc3c(c(NC4CCOCC4)n2)[S+]([O-])CC3)CC1` (stereo not drawn) [Example 217]: 88%.
Same read-out and setting: the result for `Cn1c(C2CCN(c3nc4c(c(NC5CCOCC5)n3)[S+]([O-])CC4)CC2)nc2cnccc21` (stereo not drawn) [Example 210, {2-[4-(1-methyl-1H-imidazo[4,5-c]pyridin-2-yl)-piperidin-1-yl]-5-oxo-6,7-dihydro-5H-5λ^4-thieno[3,2-d]pyrimidin-4-yl}-(tetrahydropyran-4-yl)-amine] reads 85%; that for `O=C(c1cccc(C2CCN(c3nc4c(c(NC5CCOCC5)n3)[S+]([O-])CC4)CC2)c1)N(C1CCOCC1)C1CC1` (stereo not drawn) [Example 257], 94%; that for `CCCN1C[C@@H](Nc2nc(N3CCC(c4ccc(Cl)cc4)CC3)nc3c2[S+]([O-])CC3)CCC1=O` (stereo partly drawn) [Example 201, 5-{2-[4-(4-chlorophenyl)-piperidin-1-yl]-5-oxo-6,7-dihydro-5H-5λ^4-thieno[3,2-d]pyrimidin-4-ylamino}-1-propylpiperidin-2-one], 95%.
Compound `CC(C)c1ccccc1OC1CCN(c2nc3c(c(N[C@H]4CCC(=O)N(C)C4)n2)[S+]([O-])CC3)CC1` (stereo partly drawn) [Example 266] showed an inhibition at 1 µM of 95%.
Still for that read-out and setting: the result for `CN(C(=O)c1ccc(C2CCN(c3nc4c(c(NC5CCOCC5)n3)[S+]([O-])CC4)CC2)cc1)C1CC1` (stereo not drawn) [Example 229, N-cyclopropyl-N-methyl-4-{1-[5-oxo-4-(tetrahydropyran-4-ylamino)-6,7-dihydro-5H-5λ^4-thieno[3,2-d]pyrimidin-2-yl]-piperidin-4-yl}-benzamide] reads 94%.
